Experimental findings from US20070027130A1, “Tricyclic 6-alkylidene-penem beta-lactamase inhibitors and beta-lactam antibiotic combination: a broad spectrum antibiotic” (priority 2005, published 2007) are described below.

In this assay the test system is E. coli GC 6265 TEM-1 (LSU-80-8). The assay can be described thus: In vivo antibacterial protection, infected mice. To be noted: 168 h, read-out: ED50 mg/kg/SIV. How it is done: Female mice strain CD-1, approximately 18-22 grams, were received from Charles River Laboratories and quarantined 7 days prior to use.
Clinical isolates that were adapted to cause infection in mice were used in the experiment, including infections with strains of E. coli and E. cloacae.
Mice were challenged by injecting 0.5 ml intraperitoneally of a predetermined bacterial inoculum suspended in 5% hog gastric mucin. The bacterial inoculum was equivalent to 10-100 LD50s of the specific infecting strain and was designed to result in death of the non-treated control animals within 7 days. Antibacterial doses (dose concentration prepared by two fold serial dilutions of the antibiotic or antibiotic/compound combination) were dissolved or suspended in 0.2% aqueous agar (subcutaneous administration) or phosphate buffered saline (intravenous administration) and administered intravenously or subcutaneously in the following manner:
a) Subcutaneously: Dose volume of 0.5 ml was administered ½ hr after infection. […]
A detailed explanation of the protocol for the determination of in vivo efficacy follows: • A) The effectiveness of the lacamase inhibitor compound/cefepime combination was evaluated against a cefepime control. […]
The protective effects of the antibacterial agent(s) were measured by the survival of the infected untreated as compared to the treated animals. […]

As to `CO/N=C(\C(=O)N[C@@H]1C(=O)N2C(C(=O)[O-])=C(C[N+]3(C)CCCC3)CS[C@H]12)c1csc(N)n1` [Cefepime], the ED50 came to 0.039 mg/kg.
